According to patent US9155714B2, “Compositions comprising an aromatic alcohol and a TRPV-1 antagonist, and uses thereof” (JOHNSON & JOHNSON CONSUMER INC., priority 2013, dated 2015):
Values joined by “and” are separate entries in the source; they are usually repeats but may differ in a detail not shown here. Identical values can stand only once.

Experiments:
Assay type in all cases: cell-based
[1] = target: T1, human vanilloid receptor-1 (TRPV-1) (Homo sapiens, UniProt Q8NER1); experiment: Calcium Flux Test, phenoxyethanol replaced with capsaicin (capsaicin-induced calcium flux)
T1 construct: host or cells: HEK293
T1 sequence (Q8NER1 whole entry): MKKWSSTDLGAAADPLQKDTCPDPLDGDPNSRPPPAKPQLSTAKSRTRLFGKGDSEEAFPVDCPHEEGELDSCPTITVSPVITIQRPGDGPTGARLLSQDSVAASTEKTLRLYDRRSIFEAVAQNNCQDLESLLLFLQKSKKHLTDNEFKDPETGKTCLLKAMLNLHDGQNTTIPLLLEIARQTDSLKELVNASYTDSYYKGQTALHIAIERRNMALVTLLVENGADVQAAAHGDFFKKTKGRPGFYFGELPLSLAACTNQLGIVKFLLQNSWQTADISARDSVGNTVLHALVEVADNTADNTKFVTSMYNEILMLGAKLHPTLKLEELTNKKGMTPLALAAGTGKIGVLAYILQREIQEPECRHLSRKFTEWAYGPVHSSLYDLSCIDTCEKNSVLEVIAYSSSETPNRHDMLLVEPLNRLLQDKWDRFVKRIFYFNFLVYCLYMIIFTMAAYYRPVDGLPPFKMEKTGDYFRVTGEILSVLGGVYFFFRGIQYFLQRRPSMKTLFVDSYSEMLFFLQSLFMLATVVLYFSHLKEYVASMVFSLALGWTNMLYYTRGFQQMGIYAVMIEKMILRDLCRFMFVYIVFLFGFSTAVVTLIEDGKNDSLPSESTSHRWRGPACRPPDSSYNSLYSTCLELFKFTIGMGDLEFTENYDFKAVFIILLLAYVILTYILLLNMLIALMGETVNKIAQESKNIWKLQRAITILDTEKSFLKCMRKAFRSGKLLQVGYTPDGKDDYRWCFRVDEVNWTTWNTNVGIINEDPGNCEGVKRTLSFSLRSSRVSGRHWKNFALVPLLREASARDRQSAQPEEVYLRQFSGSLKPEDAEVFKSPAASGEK
Protocol: (§1) The Calcium Flux Test is performed in the following manner: Recombinant HEK293 cells expressing human vanilloid receptor-1 (TRPV-1; accession number AF196175, EMD Millipore, Billerica, Mass.) are grown in D-MEM/F-12 media (Life Technologies, Grand Island, N.Y.) supplemented with 10% fetal bovine serum, 1% non essential amino acids and 400 μg/mL Geneticin (Gibco, Life Technologies). Cells are plated at a concentration of 15,000 cells per well on poly-D-lysine-coated 384 well plates and incubated overnight at 5% CO2 and 37° C. After incubation, culture media is removed from the wells and replaced with 50 μL per well of Fluo-8 No Wash dye solution (#36315, AAT Bioquest, Sunnyvale, Calif.). The Fluo-8 dye solution is prepared by mixing 20 uL of Fluo-8 NW with 30 mL of 0.33× Pluronic® F127 Plus (BASF of Ludwigshafen, Germany) in assay buffer (1×HBSS+2% of HEPES). Fluo-8 dye is incubated for 30 minutes at room temperature. Intracellular calcium (Ca^2+) flux is monitored upon exposure to aromatic alcohol in DMSO vehicle by measuring fluorescence intensity at Ex/Em 490/525 on a Functional Drug Screening System (FDSS; Hamamatsu, […]). Measurements are taken every second for a period of 4 minutes. […] Statistical differences are obtained using One Way ANOVA with Tukey Post-hoc test; statistical significance is defined as P≦0.05.
(§2) The Maximum RFU obtained with a given concentration of aromatic alcohol is compared with the Maximum RFU obtained using the same concentration of aromatic alcohol but pretreated with the TRPV-1 antagonist for 5 minutes after dye incubation. Percent inhibition achieved with the TRPV-1 antagonist is calculated as: 100*((Maximum RFU of aromatic alcohol−Maximum RFU of aromatic alcohol pretreated with TRPV-1 antagonist)/Maximum RFU of aromatic alcohol).
(§3) Capsazepine and AMG9810 were tested for activity as TRPV-1 antagonists using the Calcium Flux Test using two different concentrations of phenoxyethanol in DMSO. They were also tested using the Calcium Flux Test in which phenoxyethanol was replaced with capsaicin. […]

[2] = target: T1, human vanilloid receptor-1 (TRPV-1); experiment: Calcium Flux Test, inhibition of phenethyl alcohol-induced calcium flux; conditions: 10 uM capsazepine; for inhibition at 10 µM: read-out: (column without head; percent inhibition)
Protocol: as §1, §2
Capsazepine was tested for activity as a TRPV-1 antagonist with different concentrations of phenethyl alcohol in DMSO as described in Example 2. […]

[3] = target: T1, human vanilloid receptor-1 (TRPV-1); experiment: Calcium Flux Test, inhibition of phenoxyethanol-induced calcium flux
Protocol: as §1, §2, §3

[4] = target: T1, human vanilloid receptor-1 (TRPV-1); experiment: Calcium Flux Test, inhibition of benzyl alcohol-induced calcium flux; conditions: 10 uM capsazepine
Protocol: as §1, §2
Capsazepine was tested for activity as a TRPV-1 antagonist with different concentrations of benzyl alcohol in DMSO as described in Example 2. […]

[5] = capsazepine 2 nM, capsaicin 300 nM
[6] = capsazepine 10 nM, capsaicin 100 nM
[7] = capsazepine 10 nM, capsaicin 300 nM
[8] = capsazepine 39 nM, capsaicin 100 nM
[9] = capsazepine 39 nM, capsaicin 300 nM
[10] = capsazepine 156 nM, capsaicin 100 nM
[11] = capsazepine 156 nM, capsaicin 300 nM
[12] = capsazepine 625 nM, capsaicin 100 nM
[13] = capsazepine 625 nM, capsaicin 300 nM
[14] = capsazepine 2500 nM, capsaicin 100 nM
[15] = capsazepine 2500 nM, capsaicin 300 nM
[16] = capsazepine 10000 nM, capsaicin 100 nM
[17] = capsazepine 10000 nM, capsaicin 300 nM
[18] = capsazepine 0.6104 nM, phenoxyethanol 2 mM
[19] = capsazepine 0.6104 nM, phenoxyethanol 3 mM
[20] = capsazepine 2 nM, phenoxyethanol 2 mM
[21] = capsazepine 10 nM, phenoxyethanol 2 mM
[22] = capsazepine 10 nM, phenoxyethanol 3 mM
[23] = capsazepine 39 nM, phenoxyethanol 2 mM
[24] = capsazepine 39 nM, phenoxyethanol 3 mM
[25] = capsazepine 156 nM, phenoxyethanol 2 mM
[26] = capsazepine 156 nM, phenoxyethanol 3 mM
[27] = capsazepine 625 nM, phenoxyethanol 2 mM
[28] = capsazepine 625 nM, phenoxyethanol 3 mM
[29] = capsazepine 2500 nM, phenoxyethanol 2 mM
[30] = capsazepine 2500 nM, phenoxyethanol 3 mM
[31] = capsazepine 10000 nM, phenoxyethanol 2 mM
[32] = capsazepine 10000 nM, phenoxyethanol 3 mM

- Maximum RFU (mean ± SD) ([1]; capsazepine 2 nM, capsaicin 100 nM): 665.83 ± 90.25 RFU
- Maximum RFU (mean ± SD) [1, 5]: 850.93 ± 28.65 RFU
- inhibition at 0.002 µM [1, 5]: 1.16%
- Maximum RFU (mean ± SD) [1, 6]: 461.29 ± 221.27 RFU
- inhibition at 0.01 µM [1, 6]: 28.7%
- Maximum RFU (mean ± SD) [1, 7]: 771.64 ± 25.92 RFU
- inhibition at 0.01 µM [1, 7]: 10.4%
- Maximum RFU (mean ± SD) [1, 8]: 187.95 ± 177.88 RFU
- inhibition at 0.039 µM [1, 8]: 71%
- Maximum RFU (mean ± SD) [1, 9]: 557.38 ± 79.48 RFU
- inhibition at 0.039 µM [1, 9]: 35.3%
- Maximum RFU (mean ± SD) [1, 10]: 29.36 ± 6.46 RFU
- inhibition at 0.156 µM [1, 10]: 95.5%
- Maximum RFU (mean ± SD) [1, 11]: 51.20 ± 14.34 RFU
- inhibition at 0.156 µM [1, 11]: 94%
- Maximum RFU (mean ± SD) [1, 12]: 24.39 ± 5.19 RFU
- inhibition at 0.625 µM [1, 12]: 96.2%
- Maximum RFU (mean ± SD) [1, 13]: 28.36 ± 3.16 RFU
- inhibition at 0.625 µM [1, 13]: 96.7%
- Maximum RFU (mean ± SD) [1, 14]: 27.61 ± 4.95 RFU
- inhibition at 2.5 µM [1, 14]: 95.7%
- Maximum RFU (mean ± SD) [1, 15]: 31.08 ± 3.44 RFU
- inhibition at 2.5 µM [1, 15]: 96.4%
- Maximum RFU (mean ± SD) [1, 16]: 45.31 ± 14.17 RFU
- inhibition at 10 µM [1, 16]: 93%
- Maximum RFU (mean ± SD) [1, 17]: 58.73 ± 4.40 RFU
- inhibition at 10 µM [1, 17]: 93.2%
- Maximum RFU ([2]; phenethyl alcohol 0 % w/v): 13.44 RFU and 17.46 ± 0.4 RFU
- Maximum RFU ([2]; phenethyl alcohol 0.000002 % w/v): 12.76 RFU and 18.03 ± 3.35 RFU
- Maximum RFU ([2]; phenethyl alcohol 0.000006 % w/v): 13.70 RFU and 18 ± 0.75 RFU
- Maximum RFU ([2]; phenethyl alcohol 0.000018 % w/v): 13.60 RFU and 18.18 ± 0.59 RFU
- Maximum RFU ([2]; phenethyl alcohol 0.00016 % w/v): 11.64 RFU and 19.48 ± 0.51 RFU
- Maximum RFU ([2]; phenethyl alcohol 0.00048 % w/v): 11.71 RFU and 20.58 ± 0.6 RFU
- Maximum RFU ([2]; phenethyl alcohol 0.0015 % w/v): 11.68 RFU and 18.5 ± 0.5 RFU
- inhibition at 10 µM ([2]; phenethyl alcohol 0.0015 % w/v): 54.3%
- (column without head; percent inhibition) ([2]; phenethyl alcohol 0.0044 % w/v): 56.15% and 80.22%
- Maximum RFU ([2]; phenethyl alcohol 0.0044 % w/v): 11.56 RFU and 15.66 ± 0.4 RFU
- (column without head; percent inhibition) ([2]; phenethyl alcohol 0.013 % w/v): 93.84%
- inhibition at 10 µM ([2]; phenethyl alcohol 0.013 % w/v): 96.3%
- (column without head; percent inhibition) ([2]; phenethyl alcohol 0.04 % w/v): 91.52%
- Maximum RFU ([2]; phenethyl alcohol 0.04 % w/v): 26.42 RFU and 39.89 ± 5.81 RFU
- inhibition at 10 µM ([2]; phenethyl alcohol 0.04 % w/v): 94%
- (column without head; percent inhibition) ([2]; phenethyl alcohol 0.12 % w/v): 37.18%
- Maximum RFU ([2]; phenethyl alcohol 0.12 % w/v): 345.95 RFU and 364.66 ± 13.76 RFU
- inhibition at 10 µM ([2]; phenethyl alcohol 0.12 % w/v): 42.9%
- Maximum RFU (mean ± SD) ([3]; capsazepine 0.1526 nM, phenoxyethanol 2 mM): 319.33 ± 77.43 RFU
- Maximum RFU (mean ± SD) ([3]; capsazepine 0.1526 nM, phenoxyethanol 3 mM): 508.45 ± 81.79 RFU
- Maximum RFU (mean ± SD) [3, 18]: 210.03 ± 46.34 RFU
- inhibition at 0.0006104 µM [3, 18]: 26.8%
- Maximum RFU (mean ± SD) [3, 19]: 351.36 ± 32.21 RFU
- inhibition at 0.0006104 µM [3, 19]: 20.5%
- Maximum RFU (mean ± SD) [3, 20]: 236.10 ± 8.91 RFU
- inhibition at 0.002 µM [3, 20]: 17.7%
- Maximum RFU (mean ± SD) ([3]; capsazepine 2 nM, phenoxyethanol 3 mM): 486.75 ± 153.02 RFU
- Maximum RFU (mean ± SD) [3, 21]: 154.95 ± 19.56 RFU
- inhibition at 0.01 µM [3, 21]: 46%
- Maximum RFU (mean ± SD) [3, 22]: 340.96 ± 12.96 RFU
- inhibition at 0.01 µM [3, 22]: 22.8%
- Maximum RFU (mean ± SD) [3, 23]: 75.06 ± 6.64 RFU
- inhibition at 0.039 µM [3, 23]: 73.8%
- Maximum RFU (mean ± SD) [3, 24]: 176.52 ± 75.37 RFU
- inhibition at 0.039 µM [3, 24]: 60%
- Maximum RFU (mean ± SD) [3, 25]: 87.54 ± 8.38 RFU
- inhibition at 0.156 µM [3, 25]: 69.5%
- Maximum RFU (mean ± SD) [3, 26]: 101.59 ± 2.44 RFU
- inhibition at 0.156 µM [3, 26]: 77%
- Maximum RFU (mean ± SD) [3, 27]: 57.76 ± 2.15 RFU
- inhibition at 0.625 µM [3, 27]: 79.9%
- Maximum RFU (mean ± SD) [3, 28]: 75.71 ± 3.39 RFU
- inhibition at 0.625 µM [3, 28]: 82.9%
- Maximum RFU (mean ± SD) [3, 29]: 84.79 ± 2.68 RFU
- inhibition at 2.5 µM [3, 29]: 70.5%
- Maximum RFU (mean ± SD) [3, 30]: 99.71 ± 6.08 RFU
- inhibition at 2.5 µM [3, 30]: 77.4%
- Maximum RFU (mean ± SD) [3, 31]: 79.39 ± 2.79 RFU
- inhibition at 10 µM [3, 31]: 72.3%
- Maximum RFU (mean ± SD) [3, 32]: 106.49 ± 4.15 RFU
- inhibition at 10 µM [3, 32]: 75.9%
- Maximum RFU ([4]; benzyl alcohol 0 % w/v): 13.30 RFU and 18.24 ± 1.3 RFU
- Maximum RFU ([4]; benzyl alcohol 0.00000199 % w/v): 11.32 RFU and 18.74 ± 2.18 RFU
- Maximum RFU ([4]; benzyl alcohol 0.00000598 % w/v): 9.46 RFU and 16.77 ± 1.48 RFU
- Maximum RFU ([4]; benzyl alcohol 0.0000538 % w/v): 10.90 RFU and 18.44 ± 0.07 RFU
- Maximum RFU ([4]; benzyl alcohol 0.001452 % w/v): 11.63 RFU and 15.7 ± 2.1 RFU
- % Inhibition ([4]; benzyl alcohol 0.004357 % w/v): 72.51%
- Maximum RFU ([4]; benzyl alcohol 0.004357 % w/v): 8.14 RFU and 15.33 ± 1 RFU
- inhibition at 10 µM ([4]; benzyl alcohol 0.004357 % w/v): 74.2%
- % Inhibition ([4]; benzyl alcohol 0.013072 % w/v): 82.58%
- inhibition at 10 µM ([4]; benzyl alcohol 0.013072 % w/v): 88.8%
- % Inhibition ([4]; benzyl alcohol 0.04 % w/v): 93.23%
- Maximum RFU ([4]; benzyl alcohol 0.04 % w/v): 18.82 RFU and 28.72 ± 1.5 RFU
- inhibition at 10 µM ([4]; benzyl alcohol 0.04 % w/v): 95.4%
- Maximum RFU ([4]; benzyl alcohol 6.64E−07 % w/v): 11.79 RFU and 18.24 ± 2.53 RFU
Compound: Oc1cc2c(cc1O)CN(C(=S)NCCc1ccc(Cl)cc1)CCC2 [Capsazepine, capsazepine]
